Experimental data as given in ChEMBL document CHEMBL3098076, “Triazino indole-quinoline hybrid: a novel approach to antileishmanial agents” (Bioorg Med Chem Lett, 2014).

Columns and labels:
[1] = tested on: Leishmania donovani; test: Antileishmanial activity against extracellular promastigote stage of Leishmania donovani; type: functional, organism-based
[2] = tested on: Leishmania donovani; test: Antileishmanial activity against intracellular amastigote stage of Leishmania donovani MHOM/IN/80/Dd8 expressing luciferase firefly reporter gene infected in mouse J774A1 cells after 72 hrs by luminescence assay; type: functional, organism-based, J774.A1
[3] = (§1) Cytotoxicity against African green monkey Vero cells after 72 hrs by MTT assay; type: cell-based; details: chlorocebus sabaeus, Vero cells
[4] = (§2) Selectivity index, ratio of CC50 for African green monkey Vero cells to IC50 for amastigote stage of Leishmania donovani MHOM/IN/80/Dd8; type: functional
[5] = tested on: Vero; test: as §2; type: functional
[6] = tested on: Vero; test: as §1; type: cell-based; details: chlorocebus sabaeus, vero, 72 h
[7] = Leishmania donovani, MHOM/IN/80/Dd8, J774.A1, 72 h, read-out: IC50

Molecule | IC50 ([1]; Leishmania donovani) | IC50 [2, 7] | IC50 ([2]; j774.a1) | CC50 at 72 h [3] | Ratio CC50/IC50 [4] | further results
CCn1c2ccc(Br)cc2c2nnc(SCCNc3ccnc4cc(Cl)ccc34)nc21 | > 40 µM | > 40 µM | – | – | – | –
Cn1c2ccccc2c2nnc(SCCCNc3ccnc4cc(Cl)ccc34)nc21 | 24.1 µM | – | ND(toxic) | – | – | –
CCCn1c2ccccc2c2nnc(SCCNc3ccnc4cc(Cl)ccc34)nc21 | > 40 µM | 14.7 µM | – | 41.7 µM | 3 | –
SODIUM ANTIMONY GLUCONATE [listing 1 of 2 here] | – | – | – | – | – | Ratio CC50/IC50 [5]: > 7
SODIUM ANTIMONY GLUCONATE [listing 2 of 2 here] | – | – | – | – | – | IC50 [1]: > 200 µM; CC50 [6]: > 400 µM; IC50 ([2]; j774.a1, read-out: IC50): 54.6 µM
CCCCn1c2ccccc2c2nnc(SCCNc3ccnc4cc(Cl)ccc34)nc21 | > 40 µM | 29.5 µM | – | – | – | –
CC(C)n1c2ccccc2c2nnc(SCCNc3ccnc4cc(Cl)ccc34)nc21 | 21.9 µM | 2.88 µM | – | 19.4 µM | 7 | –
CCCCCCCCCCCCCCCCOP(=O)([O-])OCC[N+](C)(C)C [MILTEFOSINE] | 1.1 µM | – | – | – | 7 | –
Clc1ccc2c(NCCCSc3nnc4c(n3)[nH]c3ccccc34)ccnc2c1 | 18.9 µM | – | ND(toxic) | – | – | –
Cn1c2ccc(Br)cc2c2nnc(SCCNc3ccnc4cc(Cl)ccc34)nc21 | > 40 µM | > 40 µM | – | – | – | –

Further lines, with some results ahead:

IC50 ([1]; Leishmania donovani) | IC50 [2, 7] | Molecule | IC50 ([2]; j774.a1) | CC50 at 72 h [3] | Ratio CC50/IC50 [4] | further results
15 µM | – | Cn1c2ccccc2c2nnc(SCCCCCNc3ccnc4cc(Cl)ccc34)nc21 | ND(toxic) | – | – | –
8.08 µM | – | Clc1ccc2c(NCCSc3nnc4c5ccccc5n(Cc5ccccc5)c4n3)ccnc2c1 | ND(toxic) | – | – | –
7.09 µM | – | Clc1ccc2c(NCCSc3nnc4c(n3)[nH]c3ccc(Br)cc34)ccnc2c1 | ND(toxic) | – | – | –
8.95 µM | – | CCn1c2ccccc2c2nnc(SCCCCCNc3ccnc4cc(Cl)ccc34)nc21 | ND(toxic) | – | – | –
2.66 µM | – | CCn1c2ccccc2c2nnc(SCCCNc3ccnc4cc(Cl)ccc34)nc21 | ND(toxic) | – | – | –
1.95 µM | – | Cn1c2ccc([N+](=O)[O-])cc2c2nnc(SCCNc3ccnc4cc(Cl)ccc34)nc21 | ND(toxic) | – | – | –
17 µM | 5.69 µM | CC(C)Cn1c2ccccc2c2nnc(SCCNc3ccnc4cc(Cl)ccc34)nc21 | – | 28.6 µM | 5 | –
9.1 µM | 7.1 µM | CCn1c2ccccc2c2nnc(SCCNc3ccnc4cc(Cl)ccc34)nc21 | – | 61.5 µM | 7 | –
6.27 µM | 0.36 µM | Cn1c2ccccc2c2nnc(SCCNc3ccnc4cc(Cl)ccc34)nc21 | – | > 400 µM | >1111 | –
6.46 µM | 6.46 µM | Cn1c2nc(SCCNc3ccnc4cc(Cl)ccc34)nnc2c2cccc(C(F)(F)F)c21 | – | 39.3 µM | 6 | –
8.75 µM | 1.11 µM | Clc1ccc2c(NCCSc3nnc4c(n3)[nH]c3ccccc34)ccnc2c1 | – | 74.3 µM | 67 | –
7.9 µM | 10.1 µM | C=CCn1c2ccccc2c2nnc(SCCNc3ccnc4cc(Cl)ccc34)nc21 | – | 10.5 µM | 1 | –
